The target in experiment [1] is T1, topoisomerase I (Topo I) (Homo sapiens, UniProt P11387).
T1 sequence (P11387 1-765): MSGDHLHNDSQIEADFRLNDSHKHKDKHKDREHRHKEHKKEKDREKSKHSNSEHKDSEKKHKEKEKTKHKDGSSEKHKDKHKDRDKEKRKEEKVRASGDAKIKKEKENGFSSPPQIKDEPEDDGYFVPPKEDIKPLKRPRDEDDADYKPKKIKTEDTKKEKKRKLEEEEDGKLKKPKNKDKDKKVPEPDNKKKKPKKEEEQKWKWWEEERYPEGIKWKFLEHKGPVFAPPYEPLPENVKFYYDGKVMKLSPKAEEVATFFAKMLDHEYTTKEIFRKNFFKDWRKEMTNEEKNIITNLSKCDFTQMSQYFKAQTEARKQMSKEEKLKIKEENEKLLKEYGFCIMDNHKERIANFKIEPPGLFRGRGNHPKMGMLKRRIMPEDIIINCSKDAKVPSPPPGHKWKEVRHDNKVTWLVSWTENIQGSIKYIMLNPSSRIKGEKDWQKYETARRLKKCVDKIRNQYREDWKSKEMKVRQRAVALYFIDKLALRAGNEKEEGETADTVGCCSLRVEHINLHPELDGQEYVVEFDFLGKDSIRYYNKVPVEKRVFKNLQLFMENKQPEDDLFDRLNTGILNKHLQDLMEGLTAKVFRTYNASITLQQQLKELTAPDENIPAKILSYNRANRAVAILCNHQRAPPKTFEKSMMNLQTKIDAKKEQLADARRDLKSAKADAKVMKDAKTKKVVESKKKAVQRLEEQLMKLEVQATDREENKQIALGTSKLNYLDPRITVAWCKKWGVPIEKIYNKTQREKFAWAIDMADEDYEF
In words: Topo I enzyme-inhibitory activity by agarose-gel electrophoresis (plasmid relaxation). The experiment is classed as biochemical. A digest of the protocol:
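Supercoiled pNO1 plasmid (0.5 µg) was relaxed by Topo I (0.75 U) in 20 mM Tris-HCl pH 7.5, 200 mM NaCl, 0.25 mM EDTA, 5 % glycerol, 5 % DMSO final, for 30 min at 37 °C. Supercoiled band intensity on agarose gel was normalized to no-enzyme and vehicle controls. IC50 from a four-parameter logistic fit.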

In experiment [2] the test system is HCT116 cells. In words: Inhibition of cell proliferation by CTG (CellTiter-Glo) luminescence assay. The conditions noted are these: Homo sapiens, read-out: HCT116, IC50. The experiment is classed as cell-based. An outline of the steps: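 Nine-point 1:3 dilutions applied to HCT116 cells (2 000/well, McCoy's 5a + 10 % FBS) for 72 h at 37 °C, final DMSO 0.25 %. Viability read by CellTiter-Glo luminescence; % inhibition versus DMSO controls fitted to four-parameter logistic for IC50.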

Experiment [3] has as its system Human colon cancer HCT116 cells. In words: Subcutaneous xenograft model of human colon cancer HCT-116 cells. The experiment is classed as in vivo, BALB/c nude mice. The conditions noted are these: day 21 post-treatment, 5 mg/kg, IV, BIW×3W. On the procedure: Test Example 4. Pharmacodynamic Evaluation of Compound 2, Compound 250, and Compound 253 in a Subcutaneous Xenograft Model of Human Colon Cancer HCT-116 Cells in BALB/c Female Nude Mice
Human colon cancer HCT116 cells were cultured in vitro as monolayers in McCoys 5a medium supplemented with 10% fetal bovine serum and 1% penicillin/streptomycin/amphotericin B at 37 °C in a 5% CO2 incubator. Cells were routinely passaged twice a week using trypsin-EDTA digestion. When cells reached 80%-90% confluence and the required cell number was achieved, cells were harvested. HCT116 cells (0.1 mL, 5×10^6 cells) were subcutaneously inoculated into the right dorsal region near the upper forelimb of each mouse (BALB/c nude mice, female, 6-8 weeks old). Treatment was initiated when the average tumor volume reached approximately 158 mm^3. Tumor volume was measured twice weekly. At the end of the experiment, the tumor growth inhibition rate (TGI) was calculated as: TGI (%) = [1 - (average tumor volume at the end of treatment in a particular group - average tumor volume at the start of treatment in that group) / (average tumor volume at the end of treatment in the vehicle control group - average tumor volume at the start of treatment in the vehicle control group)] × 100%.
(§1) Experimental Groups and Dosing Regimen:
• 1, Vehicle control group • 2, Compound 2, 5 mg/kg, IV, BIW×3W • 3, Compound 250, 5 mg/kg, IV, BIW×3W • 4, Compound 253, 5 mg/kg, IV, BIW×3W

Experiment [4] deals with Human colon cancer CR00090 cells. In words: CR00090 human colon cancer model (subcutaneous). The experiment is classed as in vivo, NPSG mice. The conditions noted are these: day 28 post-treatment, 5 mg/kg, IV, BIW×4W. On the procedure:
Test Example 5: Pharmacodynamic Evaluation of Compound 117, Compound 250, and Compound 253 in the CR00090 Human Colon Cancer Model
Human colon cancer CR00090 cells were thawed, counted, and mixed with Matrigel at a 1:1 ratio. Then, 0.1 mL (5×10^5 cells) of CR00090 cells were subcutaneously inoculated into the right dorsal region near the upper forelimb of each mouse (NPSG mice, female, 6-8 weeks old). Treatment was initiated when the average tumor volume reached approximately 84 mm^3. Tumor volume was measured twice weekly. At the end of the experiment, the tumor growth inhibition rate (TGI) was calculated as: TGI (%) = [1 - (average tumor volume at the end of treatment in a particular group - average tumor volume at the start of treatment in that group) / (average tumor volume at the end of treatment in the vehicle control group - average tumor volume at the start of treatment in the vehicle control group)] × 100%.
as §1
• 1, Vehicle control group • 2, Compound 117, 5 mg/kg, IV, BIW×4W • 3, Compound 250, 5 mg/kg, IV, BIW×4W • 4, Compound 253, 5 mg/kg, IV, BIW×4W

Setting [5] is: read-out: inhibition of topoisomerase I (Topo I) enzymatic activity, IC50; 0.75 U Topo I, pNO1 plasmid, 37 °C, 30 min; compounds listed by group (Group A / Group B).
Setting [6] is: 0.75 U Topo I, pNO1 plasmid, 37 °C, 30 min; compounds listed by group (Group A / Group B); read-out: inhibition of topoisomerase I (Topo I) enzymatic activity, IC50.
Where [7] appears, read: HCT-116, 72 h incubation, CellTiter-Glo.

Like-named read-outs stand apart in the source and are kept apart here.

As to `CC[C@@]1(O)C(=O)OCc2c1cc1n(c2=O)Cc2c-1c(=O)c1cc(F)cc(C)c1n2CCNC1CCCC1` [Example 168], the IC50 (in general, the point on the concentration scale where inhibition reaches its midpoint) in experiment [1] (setting [5]) is 0.2 to 0.5 µM; in experiment [2] (HCT-116, 72 h), under 0.02 µM.
The corresponding values for `CC[C@@]1(O)C(=O)OCc2c1cc1n(c2=O)Cc2c-1c(=O)c1cc(F)cc(C)c1n2CCNC1CC1` [Example 169] are 0.2 to 0.5 µM and under 0.02 µM.
The corresponding values for `CC[C@@]1(O)C(=O)OCc2c1cc1n(c2=O)Cc2c-1c(=O)c1cc(F)cc(C)c1n2CCN(C1CCCC1)C1CC1` [Example 171] are 0.2 to 0.5 µM and under 0.02 µM.
Take `CC[C@@]1(O)C(=O)OCc2c1cc1n(c2=O)Cc2c-1c(=O)c1cc(F)cc(C)c1n2CCN(C)C1CCCC1` [Example 172]: the IC50 is 0.2 to 0.5 µM in experiment [1] (setting [5]) and under 0.02 µM in experiment [2] (HCT-116, 72 h).
On to `CC[C@@]1(O)C(=O)OCc2c1cc1n(c2=O)Cc2c-1c(=O)c1cc(F)ccc1n2CCN1CC2(CC2)C1` [Example 182, (S)-11-(2-(5-azaspiro[2.3]hexan-5-yl)ethyl)-4-ethyl-8-fluoro-4-hydroxy-1,12-dihydro-14H-pyrano[3',4':6,7]indolizino[2,1-b]quinoline-3,6,14(4H,11H)-trione], for which the IC50 in experiment [1] (setting [6]) was 0.2 to 0.5 µM; in experiment [2] (setting [7]), under 0.02 µM.
For the molecule `CC[C@@]1(O)C(=O)OCc2c1cc1n(c2=O)Cc2c-1c(=O)c1cc(F)ccc1n2CCN1CCCC1(C)C` [Example 184], the IC50 is under 0.2 µM in experiment [1] (setting [5]) and under 0.02 µM in experiment [2] (HCT-116, 72 h).
In the same order, the values of `CC[C@@]1(O)C(=O)OCc2c1cc1n(c2=O)Cc2c-1c(=O)c1cc(F)ccc1n2CCN1CCC(C)(C)CC1` [Example 185] are 0.2 to 0.5 µM and under 0.02 µM.
As to `CC[C@@]1(O)C(=O)OCc2c1cc1n(c2=O)Cc2c-1c(=O)c1cc(F)ccc1n2CCN1CC(F)(F)C1` [Example 186], the values for the IC50 in experiment [1] (setting [6]) and in experiment [2] (setting [7]) were 0.2 to 0.5 µM and under 0.02 µM, respectively.
Regarding `CC[C@@]1(O)C(=O)OCc2c1cc1n(c2=O)Cc2c-1c(=O)c1cc(F)ccc1n2CCN1C2CCC1CC(F)(F)C2` [Example 187], the IC50 in experiment [1] (setting [5]) is 0.2 to 0.5 µM; in experiment [2] (HCT-116, 72 h), under 0.02 µM.
As for `CC[C@@]1(O)C(=O)OCc2c1cc1n(c2=O)Cc2c-1c(=O)c1cc(F)ccc1n2CCN1CCC(F)(F)CC1` [Example 190], the IC50 is under 0.2 µM in experiment [1] (setting [5]) and under 0.02 µM in experiment [2] (HCT-116, 72 h).
In the same order, the values of `CC[C@@]1(O)C(=O)OCc2c1cc1n(c2=O)Cc2c-1c(=O)c1cc(F)c(CN(C)C3CC3)cc1n2C1CC1` [Example 225] are 0.2 to 0.5 µM and under 0.02 µM.
In the same order, the values of `CC[C@@]1(O)C(=O)OCc2c1cc1n(c2=O)Cc2c-1c(=O)c1cc(F)c(CNC3CC3)cc1n2C1CCCC1` [Example 227] are 0.2 to 0.5 µM and under 0.02 µM.
As to `CC[C@@]1(O)C(=O)OCc2c1cc1n(c2=O)Cc2c-1c(=O)c1cc(F)c(CN(C)C3CC3)cc1n2C1CCCC1` [Example 228], the concentration for half-maximal inhibition (IC50) in experiment [1] (setting [6]) is 0.2 to 0.5 µM; in experiment [2] (setting [7]) it was under 0.02 µM.
Regarding `CC[C@@]1(O)C(=O)OCc2c1cc1n(c2=O)Cc2c-1c(=O)c1cc(F)ccc1n2[C@@H]1CCN(C2CCC2)C1` [Example 253, (S)-4-ethyl-8-fluoro-4-hydroxy-11-((R)-1-cyclobutylpyrrolidin-3-yl)-1,12-dihydro-14H-pyrano[3',4':6,7]indolizino[2,1-b]quinoline-3,6,14(4H,11H)-trione], the half-maximal inhibitory concentration (IC50) in experiment [2] (setting [7]) is under 0.02 µM. For the same molecule, the TGI in experiment [3] came out at 80.6%; in experiment [4] it was 76.3%. The tumor volume in experiment [3] (vehicle control 1146 mm^3) was 351 mm^3; in experiment [4] (vehicle control 1093 mm^3), 323 mm^3.
Take `CC[C@@]1(O)C(=O)OCc2c1cc1n(c2=O)Cc2c-1c(=O)c1cc(F)c(N)cc1n2-c1ccc2c(c1)OC(F)(F)O2` [Example 354]: the IC50 in experiment [1] (setting [5]) is under 0.2 µM; in experiment [2] (HCT-116, 72 h) it was under 0.02 µM.
Take `CC[C@@]1(O)C(=O)OCc2c1cc1n(c2=O)Cc2c-1c(=O)c1cc(F)c(N)cc1n2-c1cc(OC)cc(C(C)C)c1` [Example 355]: the IC50 in experiment [1] (setting [6]) was 0.2 to 0.5 µM; in experiment [2] (setting [7]), under 0.02 µM.

Source of the values: patent publication EP4778929A1, “NOVEL TYPE I TOPOISOMERASE INHIBITOR, AND PREPARATION METHOD THEREFOR AND USE THEREOF” (priority 2023, dated 2025).
